Test results taken from ChEMBL document CHEMBL2331098, “Unprecedented polyketides from a marine sponge-associated Stachylidium sp” (J Nat Prod, 2013).
Activity calls are given as the source filed them.

Legend:
Escherichia coli = test: Antimicrobial activity against Escherichia coli; assay type: functional, organism-based
Microbotryum violaceum = test: Antimicrobial activity against Microbotryum violaceum; assay type: functional, organism-based
SF-268 = test: Cytotoxicity against human SF268 cells at 100 uM; assay type: functional, cell-based
Homo sapiens = species: Homo sapiens; test: Inhibition of NF-kappaB protein complex (unknown origin) at 100 uM
Mycotypha microspora = test: Antimicrobial activity against Mycotypha microspora; assay type: functional, organism-based
Priestia megaterium = test: Antimicrobial activity against Bacillus megaterium; assay type: functional, organism-based
Aspergillus ruber = test: Antimicrobial activity against Eurotium rubrum; assay type: functional, organism-based
NCI-H460 = test: Cytotoxicity against human NCI-H460 cells at 100 uM; assay type: functional, cell-based
MCF7 = test: Cytotoxicity against human MCF7 cells at 100 uM; assay type: functional, cell-based
[Chlorella] fusca = Antimicrobial activity against Chlorella fusca; assay type: functional, organism-based; details: Scenedesmus fuscus
[1] = biological target: T1, Peroxisome proliferator-activated receptor (Homo sapiens) (UniProt P37231+Q07869+Q03181); test: Activity at PPAR (unknown origin) by PPAR co-activator assay; assay type: protein assay
Adipocyte [2] = test: Induction of glucose uptake in rat primary adipocyte cells at 100 uM; assay type: functional, cell-based
[3] = biological target: T1, Peroxisome proliferator-activated receptor (Homo sapiens); test: Activity at PPAR (unknown origin) by PPAR ligand assay; assay type: protein assay
Adipocyte [4] = test: Induction of glucose uptake in mouse primary adipocyte cells at 100 uM; assay type: functional, cell-based
[5] = biological target: Tyrosine-protein phosphatase non-receptor type 1 (Homo sapiens) (UniProt P18031); test: Inhibition of PTP1B (unknown origin)
3T3-L1 = test: Induction of glucose uptake in mouse 3T3L1 cells at 100 uM; assay type: functional, cell-based

Chain of Tyrosine-protein phosphatase non-receptor type 1 (Homo sapiens) (P18031 whole entry): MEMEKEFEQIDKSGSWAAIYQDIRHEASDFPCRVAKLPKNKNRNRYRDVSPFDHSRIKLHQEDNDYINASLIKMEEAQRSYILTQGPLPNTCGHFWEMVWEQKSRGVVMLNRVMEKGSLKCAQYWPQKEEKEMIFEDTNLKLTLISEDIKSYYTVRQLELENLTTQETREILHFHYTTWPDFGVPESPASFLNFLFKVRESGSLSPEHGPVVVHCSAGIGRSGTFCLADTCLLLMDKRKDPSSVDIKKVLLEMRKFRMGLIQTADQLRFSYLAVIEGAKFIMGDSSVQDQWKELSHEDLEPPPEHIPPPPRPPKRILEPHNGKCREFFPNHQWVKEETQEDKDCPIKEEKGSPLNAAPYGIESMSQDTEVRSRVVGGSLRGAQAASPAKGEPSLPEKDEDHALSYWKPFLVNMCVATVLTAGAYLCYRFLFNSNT

COc1c(C)c(OC/C=C(\C)CCC=C(C)C)cc2c1[C@H](OC)O[C@@]2(C)OC
inactive: Activity (Escherichia coli) | Activity (Microbotryum violaceum) | Activity (SF-268) | Activity (Homo sapiens) | Activity (Mycotypha microspora) | Activity (Priestia megaterium) | Activity (Aspergillus ruber) | Activity (NCI-H460) | Activity (MCF7) | Activity ([Chlorella] fusca)

COc1c(C)c(O)cc2c1C(O)CC2=O (configuration not stated)
inactive: Activity [1] | inhibition (Adipocyte [2]) | Activity (Escherichia coli) | Activity (Microbotryum violaceum) | Activity (SF-268) | Activity [3] | Activity (Homo sapiens) | Activity (Mycotypha microspora) | inhibition (Adipocyte [4]) | Activity (Priestia megaterium) | Activity (Aspergillus ruber) | Activity (NCI-H460) | inhibition [5] | Activity (MCF7) | Activity ([Chlorella] fusca) | inhibition (3T3-L1)

COc1c(C)c(OC/C=C(\C)CCC=C(C)C)cc2c1[C@H](OC)O[C@]2(C)OC
inactive: Activity (Escherichia coli) | Activity (Microbotryum violaceum) | Activity (Homo sapiens) | Activity (Mycotypha microspora) | Activity (Priestia megaterium) | Activity (Aspergillus ruber) | Activity ([Chlorella] fusca)

CCc1cc(O)c(C)c(=O)o1
inactive: Activity [1] | inhibition (Adipocyte [2]) | Activity (Escherichia coli) | Activity (Microbotryum violaceum) | Activity [3] | Activity (Mycotypha microspora) | inhibition (Adipocyte [4]) | Activity (Priestia megaterium) | Activity (Aspergillus ruber) | inhibition [5] | Activity ([Chlorella] fusca) | inhibition (3T3-L1)

COCc1c(CO)cc(O)c(C)c1OC
inactive: Activity (Escherichia coli) | Activity (Microbotryum violaceum) | Activity (Mycotypha microspora) | Activity (Priestia megaterium) | Activity (Aspergillus ruber) | Activity ([Chlorella] fusca)

CCc1cc(O)c(C)c(OC)c1CC(C)C(=O)CC(O)CC (configuration not stated)
inactive: Activity (Escherichia coli) | Activity (Microbotryum violaceum) | Activity (Mycotypha microspora) | Activity (Priestia megaterium) | Activity (Aspergillus ruber) | Activity ([Chlorella] fusca)
